Experiments:
Format in all cases: cell-based, murine
P388/MET = assay: Growth rate of P388/MET resistant cells; details: P388/MET grown in the presence of 10^−8 drug, no lipid treatment
Experimental: (§1) P388/MET and P388/DOX resistant cell lines were developed as described in Example 7 above. Non-treated P388 cells and resistant cell lines of these cells were grown in the presence and absence of 10^−8M of MET or DOX as indicated in Table 5 below.

P388 (unadapted) = assay: Growth rate of unadapted P388 cells; details: unadapted P388 grown in the presence of 10^−8M drug; relative to unadapted P388 = 100
Experimental: as §1

P388/DOX = assay: Growth rate of P388/DOX resistant cells; details: P388/DOX grown in the presence of 10^−8 drug, no lipid treatment
Experimental: as §1

Row | SMILES | relative growth rate (P388/MET) | relative growth rate (P388 (unadapted)) | relative growth rate (P388/DOX)
1 | CN(Cc1cnc2nc(N)nc(N)c2n1)c1ccc(C(=O)N[C@@H](CCC(=O)O)C(=O)O)cc1 [MET, methotroxeate] | 95 ± 5 | 10 ± 5 | 93 ± 5
2 | COc1cccc2c1C(=O)c1c(O)c3c(c(O)c1C2=O)C[C@@](O)(C(=O)CO)C[C@@H]3O[C@H]1C[C@H](N)[C@H](O)[C@H](C)O1 [DOX, doxorubicine] | 95 ± 5 | 10 ± 5 | 95 ± 5
